From PubChem BioAssay AID1259332 (Broad Institute, 2017)
Calls of active or inactive are those of the source. No rule for the calls is given here.

Test system: B cell line, CD40 signaling inhibition reporter
Assay: CD40 pathway inhibition in B cells – B cell lineage, dose response (AID 1259332);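 also: cells stimulated with CD40 ligand tCD40L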

O=C(C1CCOCC1)N1CC(=O)N2[C@H](C1)[C@H](c1ccc(C#CCc3ccccc3)cc1)[C@@H]2CO and O=C1C=CC2C3C(=O)N(c4ccccc4)C(=O)C3C1N2Cc1ccccc1 (centres undefined) are within 1.5-fold of each other in AC50: 1.86 µM for the first, 1.8 µM for the second.

Compared with N#CC(C#N)=NNc1cccc(Cl)c1, O=C(Nc1cccc(N2C(=O)C=CC2=O)c1)c1cccs1 is 3.9-fold lower in AC50: 6.54 µM for the first, 1.68 µM for the second.

Compared with O=S(=O)(/C(=C\c1ccc(C(F)(F)F)cc1)c1nc2ccccc2[nH]1)c1ccccc1, NC(c1ccccc1)c1csc(NC(=O)Nc2cccc(C(F)(F)F)c2)n1 (centres undefined) is 2.7-fold higher in AC50: 2.26 µM for the first, 6.03 µM for the second.

C[C@@H]1CN([C@@H](C)CO)C(=O)c2c(c3ccccc3n2C)-c2ccccc2CO[C@@H]1CN(C)Cc1cccc(C(F)(F)F)c1 and C[C@@H]1CN([C@@H](C)CO)C(=O)c2c(c3ccccc3n2C)-c2ccccc2CO[C@H]1CN(C)C(=O)Nc1cccc(C(F)(F)F)c1 are within 1.5-fold of each other in AC50: 7.08 µM for the first, 9.25 µM for the second.

Going from COc1ccc2cc(-c3cc(C(=O)O)c4ccccc4n3)ccc2c1 to COc1ccc(C=Cc2ccc3ccccc3n2)c(OC)c1, the AC50 rises from 6.11 µM to 11.3 µM (1.8-fold).

CC(C)NC(=O)N1Cc2cc(C(=O)NC3Cc4ccccc4C3)nc(-c3cccc(-c4cccnc4)c3)c2[C@@H]1CCO and COc1ccccc1NC(c1cccnc1)c1ccc2cccnc2c1O (centres undefined) are within 1.5-fold of each other in AC50: 10.6 µM for the first, 8.25 µM for the second.

Compared with Cc1nc(C)c(C(=O)Nc2ncc([N+](=O)[O-])s2)o1, CC(=O)Nc1ccc(Sc2ccc([N+](=O)[O-])o2)cc1 is 4.6-fold lower in AC50: 9.08 µM for the first, 1.99 µM for the second.

O=C(NCCc1ccccc1)c1ccc2nccnc2c1 and OC(c1cc(-c2cccc(Cl)c2)nc2ccccc12)C1CCCCN1 (centres undefined) are within 1.5-fold of each other in AC50: 6.02 µM for the first, 4.14 µM for the second.

Oc1c(Cl)cc(Cl)c(Cl)c1Cc1c(O)c(Cl)cc(Cl)c1Cl and CC(C)=CCc1c2c(c3occ(-c4ccc(O)c(O)c4)c(=O)c3c1O)C=CC(C)(C)O2 are within 1.5-fold of each other in AC50: 3.6 µM for the first, 4.31 µM for the second.

First: CCCCCN1C=CC(=C2C(=O)c3ccccc3C2=O)C=C1
Second: Cn1cnc([N+](=O)[O-])c1S(=O)(=O)Oc1cccc2ccccc12
The AC50 of the first is 2.9-fold lower: 0.127 µM for the first, 0.368 µM for the second.

First: NCCOc1ccc(C23CC4CC(CC(C4)C2)C3)cc1
Second: CC(=O)OC(C)(C)/C=C/C(=O)C(C)(O)C1C(O)CC2(C)C3CC=C4C(CC(O)C(=O)C4(C)C)C3(C)C(=O)CC12C (centres undefined)
The AC50 of the first is 46-fold higher: 5.74 µM for the first, 0.124 µM for the second.

Compared with CC[C@@]1(O)C(=O)OCc2c1cc1n(c2=O)Cc2cc3c(CN(C)C)c(O)ccc3nc2-1, C[C@H](CO)N1C[C@H](C)[C@@H](CN(C)Cc2ccc(Cl)c(Cl)c2)OCCCC[C@H](C)Oc2ccc(NS(=O)(=O)c3cccs3)cc2C1=O is 9.3-fold higher in AC50: 0.9 µM for the first, 8.38 µM for the second.

First: O=C1CC(c2ccc3c(c2)OCO3)Sc2nc3ccccc3n21 (centres undefined)
Second: O=c1cc(-c2ccc(O)cc2)oc2ccc3ccccc3c12
The AC50 of the first is 4-fold higher: 8.89 µM for the first, 2.2 µM for the second.

First: CN(C)c1ccc(NC(=O)c2cnsn2)cc1
Second: CC(OC(=O)c1cc(Br)ccc1O)C(=O)Nc1ccc(S(=O)(=O)N2CCCC2)cc1 (centres undefined)
The AC50 of the first is 1.8-fold lower: 6.15 µM for the first, 11 µM for the second.

Going from CC1=CC2OC3CC4OC(=O)C=CC=CC(=O)OCCC(C)C(O)C(=O)OCC2(CC1O)C4(C)C31CO1 (centres undefined) to CC1Cc2ccccc2N1c1ncnc(N)c1[N+](=O)[O-] (centres undefined), the AC50 rises from 0.0067 µM to 7.92 µM (1200-fold).

First: CC1=NNC(=O)C1Br (centres undefined)
Second: CC(C)(C)c1cc(C=C(C#N)C#N)cc(C(C)(C)C)c1O
The AC50 of the first is 15-fold higher: 7.86 µM for the first, 0.524 µM for the second.

For N#C[C@@H]1[C@H](c2ccc(C#CC3CCCC3)cc2)[C@@H](CO)N1C(=O)Nc1ccc(F)cc1, the AC50 was > 20 µM (inactive).
With Cc1ccc(-c2ccccc2[C@H]2[C@@H](C#N)N(c3ncc(-c4ccccc4)s3)[C@@H]2CO)cc1 the AC50 was > 20 µM (inactive).
With C[C@@H]1CN([C@@H](C)CO)C(=O)c2c(c3ccccc3n2C)-c2ccccc2CO[C@@H]1CN(C)C(=O)c1cc(Cl)cc(Cl)c1 the AC50 was > 20 µM (inactive).
For CCOC(=O)c1cc2c(ccn2C)n1Cc1ccc(C#N)cc1, the AC50 was > 20 µM (inactive).
For COc1ccc2c3c([nH]c2c1)[C@H](CO)N(C(=O)Nc1ccc(F)cc1)CC31CN(Cc2cc(F)ccc2F)C1, the AC50 was > 20 µM (inactive).
For N#C[C@@H]1[C@@H](c2ccccc2-c2ccc(F)cc2)[C@H](CO)N1C(=O)NC1CCCCC1, the AC50 was > 22 µM (inactive).
In the case of O=C(C1CCC1)N1CCc2cc(S(=O)(=O)N3CCCCC3)ccc21, the AC50 is reported as > 20 µM (inactive).
